Test: xn = mol fraction of the nth substance listed

C=Cc1ccccc1 + CCCCCCCCC
viscosity [mPa·s], 101.33 kPa
Settings	x1 = 0.0999	x1 = 0.2002	x1 = 0.2986	x1 = 0.3964	x1 = 0.4953	x1 = 0.5967	x1 = 0.6984	x1 = 0.7933	x1 = 0.8971
298.15 K	0.638	0.626	0.618	0.613	0.614	0.616	0.628	0.642	0.669
303.15 K	0.606	0.588	0.582	0.577	0.579	0.581	0.593	0.606	0.628
308.15 K	0.564	0.551	0.547	0.544	0.544	0.547	0.558	0.57	0.591

C=Cc1ccccc1 + CCCCCCCCCC
viscosity [mPa·s], 101.33 kPa
Settings	x1 = 0.1007	x1 = 0.2052	x1 = 0.2991	x1 = 0.4114	x1 = 0.4959	x1 = 0.6135	x1 = 0.6992	x1 = 0.8062	x1 = 0.8984
298.15 K	0.803	0.773	0.75	0.724	0.706	0.688	0.68	0.677	0.693
303.15 K	0.749	0.722	0.702	0.678	0.663	0.646	0.638	0.633	0.644
308.15 K	0.7	0.678	0.658	0.638	0.624	0.607	0.602	0.6	0.611

CC12CC3CC(C1)CC(C)(C3)C2 + CCCCCCCCCC
viscosity [mPa·s], 100 kPa
Settings	x1 = 0.1028	x1 = 0.1981	x1 = 0.3019	x1 = 0.3998	x1 = 0.4996	x1 = 0.6018	x1 = 0.6968	x1 = 0.7904	x1 = 0.895
293.15 K	1.016	1.12	1.253	1.402	1.581	1.828	2.125	2.491	3.031
298.15 K	0.942	1.035	1.154	1.287	1.445	1.665	1.926	2.247	2.719
303.15 K	0.877	0.961	1.069	1.187	1.328	1.526	1.757	2.04	2.456
313.15 K	0.767	0.837	0.926	1.023	1.137	1.295	1.48	1.704	2.032
323.15 K	0.672	0.729	0.797	0.879	0.972	1.098	1.237	1.421	1.676

CC12CC3CC(C1)CC(C)(C3)C2 + CCCCCCCCCCC
viscosity [mPa·s], 100 kPa
Settings	x1 = 0.1005	x1 = 0.2002	x1 = 0.2999	x1 = 0.4004	x1 = 0.4999	x1 = 0.5996	x1 = 0.7003	x1 = 0.8	x1 = 0.8999
293.15 K	1.278	1.376	1.491	1.628	1.805	2.024	2.319	2.683	3.141
298.15 K	1.173	1.273	1.385	1.492	1.639	1.831	2.087	2.418	2.813
303.15 K	1.083	1.162	1.25	1.37	1.501	1.676	1.901	2.19	2.531
308.15 K	1.003	1.071	1.153	1.259	1.376	1.53	1.735	1.98	2.299
313.15 K	0.936	0.998	1.074	1.166	1.272	1.409	1.589	1.817	2.083
318.15 K	0.872	0.939	1.006	1.084	1.172	1.297	1.461	1.665	1.911
323.15 K	0.815	0.871	0.94	1.008	1.097	1.207	1.348	1.532	1.744

C=Cc1ccccc1 + CCCCCCCCCCCC
viscosity [mPa·s], 101.33 kPa
Settings	x1 = 0.0973	x1 = 0.2027	x1 = 0.2991	x1 = 0.4009	x1 = 0.5183	x1 = 0.5987	x1 = 0.699	x1 = 0.8005	x1 = 0.8996
298.15 K	1.243	1.143	1.062	0.99	0.909	0.866	0.822	0.774	0.739
303.15 K	1.151	1.051	0.985	0.92	0.847	0.81	0.769	0.722	0.688
308.15 K	1.059	0.98	0.915	0.854	0.791	0.76	0.724	0.691	0.656

CCCCCCCCO + CCCCCCCCCCCC
298.15 K, 101 kPa
Settings	viscosity [mPa·s]
x2 = 0.0554	6.58
x2 = 0.0999	6
x2 = 0.1554	5.3
x2 = 0.1998	4.78
x2 = 0.2555	4.16
x2 = 0.2998	3.71
x2 = 0.3554	3.19
x2 = 0.3998	2.81
x2 = 0.4554	2.39
x2 = 0.4999	2.1
x2 = 0.5555	1.78
x2 = 0.5998	1.57
x2 = 0.6555	1.35
x2 = 0.6998	1.22
x2 = 0.7554	1.1
x2 = 0.7998	1.04
x2 = 0.8555	1
x2 = 0.8999	1
x2 = 0.9555	1.04

BrC(Br)Br + CCCCCCCCCO
viscosity [mPa·s], 101.3 kPa
Settings	x1 = 0.105	x1 = 0.299	x1 = 0.404	x1 = 0.504	x1 = 0.604	x1 = 0.704	x1 = 0.802	x1 = 0.903
298.15 K	7.847	5.743	5.079	4.228	3.571	2.984	2.492	2.12
303.15 K	6.517	4.87	4.38	3.693	3.151	2.669	2.266	1.963
308.15 K	5.421	4.144	3.777	3.24	2.802	2.399	2.065	1.818

BrC(Br)Br + CCCCCCCO
viscosity [mPa·s], 101.3 kPa
Settings	x1 = 0.102	x1 = 0.204	x1 = 0.301	x1 = 0.405	x1 = 0.503	x1 = 0.597	x1 = 0.699	x1 = 0.801	x1 = 0.901
298.15 K	5.359	4.647	4.131	3.544	3.133	2.755	2.44	2.17	1.982
303.15 K	4.524	3.988	3.547	3.093	2.773	2.457	2.199	1.992	1.844
308.15 K	3.863	3.422	3.084	2.712	2.461	2.205	1.99	1.822	1.713

CCCCCCCCO + CCCCCCCO
viscosity [mPa·s]
Settings	293.15 K	298.15 K	308.15 K	318.15 K
101.33 kPa, x2 = 0.1671	8.821	7.374	–	–
101.33 kPa, x2 = 0.3071	8.507	7.128	–	–
101.33 kPa, x2 = 0.4819	8.113	6.847	–	–
101.33 kPa, x2 = 0.6319	7.827	6.588	–	–
101.33 kPa, x2 = 0.6868	7.688	6.471	–	–
101.33 kPa, x2 = 0.8784	7.302	6.161	–	–
101.8 kPa, x2 = 0.1105	–	7.442	5.362	3.936
101.8 kPa, x2 = 0.3246	–	7.122	5.139	3.78
101.8 kPa, x2 = 0.5285	–	6.742	4.884	3.607
101.8 kPa, x2 = 0.723	–	6.415	4.676	3.463
101.8 kPa, x2 = 0.9101	–	6.128	4.474	3.324

BrC(Br)Br + CCCCCCO
viscosity [mPa·s], 101.3 kPa
Settings	x1 = 0.097	x1 = 0.199	x1 = 0.298	x1 = 0.403	x1 = 0.497	x1 = 0.601	x1 = 0.701	x1 = 0.798	x1 = 0.9
298.15 K	4.186	3.77	3.34	2.965	2.667	2.4	2.192	2.031	1.922
303.15 K	3.573	3.237	2.907	2.611	2.37	2.156	1.988	1.866	1.784
308.15 K	3.092	2.811	2.537	2.301	2.114	1.943	1.815	1.719	1.663
